The results in this text go back to patent US20250090510A1, “eIF4G1-eIF1 INHIBITORS AND USE THEREOF” (YEDA RESEARCH AND DEVELOPMENT CO. LTD., priority 2022, published 2025).

The structures appear in SMILES notation.

One data set relates to human blood cells. As to the kind of experiment: Effect on host blood cells in the parasitemia assay. Particulars: i14G1-10 20 uM, i14G1-12 10 uM; 1 hour.
Another data set concerns the target T1, eIF4G1 (Homo sapiens, UniProt Q04637).
T1 construct: The pET-28-His-bdSumo-eIF4G1 (675-1129) was generated using eIF4G1 (675-1129) as insert and pET-28-14His-bdSumo as backbone; bdSUMO (N); made in house; host or cells: E. coli BL21
As to the kind of experiment: Intrinsic fluorescence of His-eIF4G1. The class given is binding. Particulars: 0-256 μM, 5 minutes, excitation 280 nm, emission 350 nm; read-out: IC50, loss of eIF4G1 intrinsic fluorescence. The source says: FIGS. 1A-G: Identification and initial characterization of eIF1-eIF4G1 inhibitors using a high-throughput drug screen (HTS). (1A) A flowchart describing the steps of the recombinant eIF1-eIF4G1 split-RL HTS. (1B) Selection of drugs that inhibit leaky scanning. HEK293T cells were transfected with a short 5′UTR bearing GFP reporter gene described on the top, treated with the indicated HTS hits, and then analyzed by western blot with GFP antibody. US and DS denote upstream and downstream AUG initiation sites, respectively. (1C) A graph showing the change in the ratio of the upstream and downstream AUG following treatment with the indicated drugs. (1D) The chemical structure of the eIF1-eIF4G1 inhibitors, i14G1-10 and i14G1-12. (1E) His-tagged eIF4G1 and His-tagged eIF1 were expressed in BL21 bacteria and purified using nickel NTA beads. Purified His-tagged eIF4G1 and His-tagged eIF1 were incubated with the indicated doses of either i14G1-10 (0-256 μM) or i14G1-12 (0-256 μM) for 5 minutes, followed by fluorescence measurement. […] IC50 was calculated using Graphpad prism 9. […]
Intrinsic fluorescence of His-eIF1 and His-eIF4G1. […] After 5 minutes, fluorescence (280/350) was measured on Cytation 5 multi-mode reader (Biotek). The fluorescence intensity values corresponding to respective concentration in both i14G1-10 and i14G1-12 treatments were plotted and IC50 was calculated using GraphPad Prism 9.0. […]

T1 sequence (Q04637 675-1129): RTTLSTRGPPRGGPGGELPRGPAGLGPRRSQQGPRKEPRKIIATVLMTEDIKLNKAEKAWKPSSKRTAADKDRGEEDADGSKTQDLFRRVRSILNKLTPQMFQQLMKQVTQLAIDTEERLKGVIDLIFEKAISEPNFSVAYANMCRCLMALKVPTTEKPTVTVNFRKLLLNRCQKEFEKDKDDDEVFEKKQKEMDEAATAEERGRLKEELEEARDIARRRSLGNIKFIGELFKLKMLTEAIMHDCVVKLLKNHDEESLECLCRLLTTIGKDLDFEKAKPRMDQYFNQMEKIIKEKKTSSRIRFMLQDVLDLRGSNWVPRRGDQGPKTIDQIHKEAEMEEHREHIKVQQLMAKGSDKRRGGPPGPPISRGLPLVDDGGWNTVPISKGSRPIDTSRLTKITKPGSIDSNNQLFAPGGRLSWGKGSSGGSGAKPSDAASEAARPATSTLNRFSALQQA
Procedure for human blood cells: Parasitemia assay. The NF54 strain of the Plasmodium falciparum was used for the Survival test. Parasites were grown in RPMI medium pH 7.4, 25 mg/ml HEPES, 50 μg/ml hypoxanthine, 2 mg/ml sodium bicarbonate, 20 μg/ml gentamycin, and 0.5% (w/v) Albumax II (Invitrogen). Pooled donor red blood cells, provided by the Israeli blood bank, at 4% hematocrit, and incubated at 37° C. in a gas mixture of 1% 02, 5% CO2 in N2 were used.
Parasitaemia levels were measured 24 hours later.

As for `O=C(/C=C/Sc1ccc(C(F)(F)F)cn1)c1ccccc1` [i14G1-10], the “effect on human blood cells” value in the data set on human blood cells was “not adversely affected”.
One may read the IC50 as the concentration needed to halve the response being measured. As to `Cn1ccnc1S/C(=C/C=C(C#N)C#N)c1ccc(Cl)cc1` [i14G1-12], at eIF4G1, the IC50 turned out to be 58.4 µM.
